Measured values as given in PubChem BioAssay (NCI).
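These data come from cells grown in 96-well plates and exposed to compound for 48 hours at five concentrations. GI50 = concentration required for 50% inhibition of growth. TGI denotes the concentration required for complete inhibition of growth.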

Legend:
Test in all cases: NCI tumour cell line growth inhibition, 48 h; in the data active = GI50 below about 0.43 µM; inactive = the rest
[1] = system: 786-0 renal
[2] = system: HL-60(TB) leukemia
[3] = system: NCI-H23 lung
[4] = system: HOP-62 NSCLC
[5] = system: SNB-75 CNS
[6] = system: SN12C renal
[7] = system: NCI-H460 lung
[8] = system: NCI-H226 lung
[9] = system: SK-MEL-2 melanoma
[10] = system: NCI/ADR-RES ovarian

CCSc1nnc(-c2ccc3ccccc3c2O)n1-c1ccccc1
> 100 µM: TGI [1] | TGI [2] | TGI [3] | TGI [4] | TGI [5] | TGI [6] | TGI [7]
inactive: GI50 [1] > 100 µM | GI50 [2] > 100 µM | GI50 [3] > 100 µM | GI50 [4] 21.5 µM | GI50 [5] 71 µM | GI50 [6] > 100 µM | GI50 [7] 3.25 µM

CC1=CC[C@@H]2C(=O)C=CC=C[C@H]12.[C-]#[O+].[C-]#[O+].[C-]#[O+].[Fe]
inactive: GI50 [1] > 100 µM | GI50 [2] > 100 µM | GI50 [3] > 100 µM | GI50 [4] > 100 µM | GI50 [8] > 100 µM | GI50 [9] > 100 µM | GI50 [5] 43.9 µM | GI50 [6] > 100 µM | GI50 [7] > 100 µM
> 100 µM: TGI [1] | TGI [2] | TGI [3] | TGI [4] | TGI [8] | TGI [9] | TGI [5] | TGI [6] | TGI [7]

CC1=C(C(=O)NCc2ccccc2)C(c2ccc(N(C)C)cc2)C(C(=O)NCc2ccccc2)=C(C)N1
> 100 µM: TGI [1] | TGI [2] | TGI [3] | TGI [4] | TGI [8] | TGI [9] | TGI [5] | TGI [6] | TGI [7]

O=C1c2ccccc2-c2c1c1ccc([N+](=O)[O-])cc1c(=O)n2CCN1CCOCC1
> 100 µM: TGI [10] | TGI [1] | TGI [3] | TGI [4] | TGI [8] | TGI [9] | TGI [5] | TGI [6] | TGI [7]
inactive: GI50 [10] > 100 µM | GI50 [1] > 100 µM | GI50 [3] > 100 µM | GI50 [4] 52 µM | GI50 [8] > 100 µM | GI50 [9] > 100 µM | GI50 [5] 35.5 µM | GI50 [6] 59.3 µM | GI50 [7] 78.4 µM

CCCCCCCCCCCc1cc(=O)c2c(O)cccc2o1
> 100 µM: TGI [1] | TGI [2] | TGI [3] | TGI [4] | TGI [8] | TGI [9] | TGI [5] | TGI [6] | TGI [7]

COc1ccc(C2C(C(=O)O)=C(CO)Oc3cc4c(cc32)OCO4)c(OC)c1 (stereo unspecified)
72 µM: TGI [4]
> 100 µM: TGI [1] | TGI [2] | TGI [3] | TGI [5] | TGI [6] | TGI [7]

O=c1c2cc(Br)ccc2n(C2OC(CO)C(O)C(O)C2O)c(=S)n1-c1ccccc1 (stereo unspecified)
> 100 µM: TGI [1] | TGI [2] | TGI [3] | TGI [4] | TGI [8] | TGI [9] | TGI [5] | TGI [6] | TGI [7]

[N-]=[N+]=Nc1nnc(CCCCc2nnc(N=[N+]=[N-])o2)o1
> 100 µM: TGI [1] | TGI [3] | TGI [4] | TGI [8] | TGI [9] | TGI [5] | TGI [6] | TGI [7]

C=CC(=O)OCCCS(=O)(=O)[O-].C=CC(=O)OCCCS(=O)(=O)[O-].NC1CCCCC1N.[Pt+4]
inactive: GI50 [1] > 25 µM | GI50 [2] > 25 µM | GI50 [3] > 25 µM | GI50 [8] > 25 µM | GI50 [9] > 25 µM | GI50 [5] > 25 µM | GI50 [6] > 25 µM | GI50 [7] > 25 µM
> 25 µM: TGI [1] | TGI [2] | TGI [3] | TGI [8] | TGI [9] | TGI [5] | TGI [6] | TGI [7]

C=CCC(O)c1cc(OC)ccc1OC (stereo unspecified)
> 100 µM: TGI [1] | TGI [2] | TGI [4] | TGI [8] | TGI [9] | TGI [5] | TGI [6] | TGI [7]

O=C(/C=C/c1ccco1)N1CCN(Cc2ccccc2)CC1
> 100 µM: TGI [1] | TGI [2] | TGI [3] | TGI [4] | TGI [5] | TGI [6] | TGI [7]

Clc1ccc2c(NCCNc3nc(N4CCCCC4)nc4ccccc34)ccnc2c1
7.46 µM: TGI [5]
6.84 µM: TGI [6]
18.4 µM: TGI [3]
2.78 µM: TGI [1]
inactive: GI50 [10] 3.5 µM | GI50 [1] 1.31 µM | GI50 [3] 4.07 µM | GI50 [4] 2.62 µM | GI50 [8] 1.92 µM | GI50 [9] 1.79 µM | GI50 [5] 1.78 µM | GI50 [6] 2.13 µM
> 100 µM: TGI [10]
4.05 µM: TGI [8]
8.84 µM: TGI [4]
3.83 µM: TGI [9]

COc1cc2ccnc(-c3n[nH]c4cc(OC)c(OC)cc34)c2cc1OC
> 100 µM: TGI [1] | TGI [2] | TGI [3] | TGI [4] | TGI [8] | TGI [9] | TGI [5] | TGI [6] | TGI [7]

CC(=O)Nc1ccc(S(=O)(=O)N/N=C(\C)CN2C(=O)c3ccccc3C2=O)cc1
> 100 µM: TGI [1] | TGI [2] | TGI [3] | TGI [4] | TGI [8] | TGI [9] | TGI [5] | TGI [6] | TGI [7]

CC(C(=O)c1ccc(O)cc1)C1(O)C(=O)Nc2c(Cl)cc(Cl)cc21 (stereo unspecified)
50.2 µM: TGI [2]
> 100 µM: TGI [1] | TGI [3] | TGI [4] | TGI [8] | TGI [9] | TGI [5] | TGI [6] | TGI [7]
